From patent US8357634B2, “N-alkoxycarboxamides and their use as microbiocides” (Syngenta Crop Protection LLC, priority 2009, dated 2013)

What was measured:
[1] = tested on: Mycosphaerella arachidis (Cercospora arachidicola); experiment: Example B-2: Action against Mycosphaerella arachidis, fungal growth assay; assay type: cell-based; conditions: 0.002% active ingredient, PDB broth, 24° C., photometric after 6-7 days
Experimental: (§1) Action Against Mycosphaerella arachidis (Early Leaf Spot of Groundnut; Cercospora arachidicola [fanamorph])—Fungal Growth Assay Conidia of the fungus from cryogenic storage were directly mixed into nutrient broth (PDB potato dextrose broth). After placing a (DMSO) solution of the test compounds (0.002% active ingredient) into a microtiter plate (96-well format) the nutrient broth containing the fungal spores was added. The test plates were incubated at 24° C. and the inhibition of growth was measured photometrically after 6-7 days. The activity of a compound was expressed as fungal growth inhibition (0=no growth inhibition, ratings of 80% to 99% mean good to very good inhibition, 100%=complete inhibition).

Botrvtis cinerea = experiment: Example B-1: Action against Botrytis cinerea, fungal growth assay; assay type: cell-based; conditions: 0.002% active ingredient, PDB broth, 24° C., photometric after 3-4 days
Experimental: as §1, with “Action against Botrvtis cinerea—fungal growth assay” for “Action Against Mycosphaerella arachidis (Early Leaf Spot of Groundnut; Cercospora arachidicola [fanamorph])—Fungal Growth Assay”, “storage was” for “storage were”, “after 3-4” for “after 6-7”

Pyrenophora teres = experiment: Example B-8: Action against Pyrenophora teres (net blotch) on barley leaf segments; assay type: in vivo; conditions: foliar, 96 h, 0.02% active ingredient, 4 days after inoculation, read-out: preventive fungicidal activity (inhibition)
Experimental: Action Against Pyrenophora teres (Net Blotch) on Barley Barley leaf segments were placed on agar in multiwell plates (24-well format) and sprayed with test solutions (0.02% active ingredient). After drying, the leaf disks were inoculated with a spore suspension of the fungus. After appropriate incubation the activity of a compound was assessed 4 days after inoculation as preventive fungicidal activity.

Puccinia recondita = experiment: Example B-6: Protective action against Puccinia recondita (brown rust) on wheat leaf segments; assay type: in vivo; conditions: foliar, 192 h, 0.02% active ingredient, 8 days after inoculation, read-out: preventive fungicidal activity (inhibition)
Experimental: Protective Action Against Puccinia recondita (Brown Rust) on Wheat Wheat leaf segments were placed on agar in multiwell plates (24-well format) and sprayed with test solutions (0.02% active ingredient). After drying, the leaf disks were inoculated with a spore suspension of the fungus. After appropriate incubation the activity of a compound was assessed 8 days after inoculation as preventive fungicidal activity.

Septoria tritici = experiment: Example B-3: Action against Septoria tritici, fungal growth assay; assay type: cell-based; conditions: Zymoseptoria tritici; 0.002% active ingredient; PDB broth, 24° C., photometric after 72 hrs
Experimental: as §1, with “Septoria tritici—Fungal” for “Mycosphaerella arachidis (Early Leaf Spot of Groundnut; Cercospora arachidicola [fanamorph])—Fungal”, “determined” for “measured”, “72 hrs.” for “6-7 days.”

[2] = tested on: Erysiphe graminis f. sp. tritici; experiment: Example B-5: Action against Erysiphe graminis f. sp. tritici (wheat powdery mildew), wheat leaf segments; assay type: in vivo; conditions: Blumeria graminis, foliar, 168 h, 0.02% active ingredient, 7 days after inoculation, read-out: preventive fungicidal activity (inhibition)
Experimental: Action Against Erysiphe graminis f. sp. tritici (Wheat Powdery Mildew) Wheat leaf segments were placed on agar in multiwell plates (24-well format) and sprayed with test solutions (0.02% active ingredient). After drying, the leaf disks were inoculated with a spore suspension of the fungus. After appropriate incubation the activity of a compound was assessed 7 days after inoculation as preventive fungicidal activity.

CON(C(=O)c1cn(C)nc1C(F)F)C(C)c1ccc(Oc2ccc(Cl)cc2)cc1 (stereo not drawn) [Compound 1.010, 3-difluoromethyl-1-methyl-1H-pyrazole-4-carboxylic acid {1-[4-(4-chloro-phenoxy)-phenyl]-ethyl}-methoxy-amide]
≥ 80%: inhibition at 0.002 % strength [1] | inhibition at 0.002 % strength (Botrvtis cinerea) | inhibition at 0.02 % strength (Pyrenophora teres) | inhibition at 0.02 % strength (Puccinia recondita) | inhibition at 0.002 % strength (Septoria tritici) | inhibition at 0.02 % strength [2]

CON(C(=O)c1cn(C)nc1C(F)F)C(C)c1cccc(-c2ccc(Cl)cc2)c1 (stereo not drawn) [Compound 1.019, 3-difluoromethyl-1-methyl-1H-pyrazole-4-carboxylic acid [1-(4′ chloro-biphenyl-3-yl)-ethyl]-methoxy-amide]
≥ 80%: inhibition at 0.002 % strength [1] | inhibition at 0.002 % strength (Botrvtis cinerea) | inhibition at 0.02 % strength (Pyrenophora teres) | inhibition at 0.02 % strength (Puccinia recondita) | inhibition at 0.002 % strength (Septoria tritici) | inhibition at 0.02 % strength [2]

CON(C(=O)c1cn(C)nc1C(F)F)C(C)c1cccc(Oc2ccc(Cl)cc2)c1 (stereo not drawn) [Compound 1.021, 3-difluoromethyl-1-methyl-1H-pyrazole-4-carboxylic acid {1-[3-(4-chloro-phenoxy)-phenyl]-ethyl}-methoxy-amide]
≥ 80%: inhibition at 0.002 % strength [1] | inhibition at 0.002 % strength (Botrvtis cinerea) | inhibition at 0.02 % strength (Pyrenophora teres) | inhibition at 0.02 % strength (Puccinia recondita) | inhibition at 0.002 % strength (Septoria tritici) | inhibition at 0.02 % strength [2]

CON(Cc1cccc(-c2ccc(Cl)cc2)c1)C(=O)c1cn(C)nc1C(F)F [Compound 1.098, 3-difluoromethyl-1-methyl-1H-pyrazole-4-carboxylic acid (4′-chloro-biphenyl-3-ylmethyl)-methoxy-amide]
≥ 80%: inhibition at 0.002 % strength [1] | inhibition at 0.002 % strength (Botrvtis cinerea) | inhibition at 0.02 % strength (Pyrenophora teres) | inhibition at 0.02 % strength (Puccinia recondita) | inhibition at 0.002 % strength (Septoria tritici) | inhibition at 0.02 % strength [2]
